Results from patent US20240343733A1, “COMPOUNDS FOR TARGETING DEGRADATION OF IRAK4 PROTEINS” (BIOGEN MA INC., priority 2021, published 2024).

What follows are molecules tested against T1, IRAK4 (Homo sapiens, UniProt Q9NWZ3) (assay: IRAK4 Degradation Assay, HiBiT Method). Settings: 293T cells expressing HiBiT-tagged IRAK4, 6 hours.
T1 construct: 293Tcells expressing HiBiT-tagged IRAK4 were then added into 384-well plates
T1 sequence (Q9NWZ3 1-460): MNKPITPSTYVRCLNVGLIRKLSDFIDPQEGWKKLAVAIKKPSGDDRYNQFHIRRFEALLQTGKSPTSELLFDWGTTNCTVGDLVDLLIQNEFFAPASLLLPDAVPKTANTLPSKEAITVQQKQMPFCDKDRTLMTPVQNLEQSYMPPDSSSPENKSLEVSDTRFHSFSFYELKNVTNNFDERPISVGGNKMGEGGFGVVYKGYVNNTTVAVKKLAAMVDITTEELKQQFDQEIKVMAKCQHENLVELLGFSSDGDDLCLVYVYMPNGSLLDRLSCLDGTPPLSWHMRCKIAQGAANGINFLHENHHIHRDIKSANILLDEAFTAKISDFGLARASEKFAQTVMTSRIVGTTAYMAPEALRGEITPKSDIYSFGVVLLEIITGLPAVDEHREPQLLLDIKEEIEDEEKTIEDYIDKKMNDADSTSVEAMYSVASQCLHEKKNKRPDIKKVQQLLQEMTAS
Type: cell-based
Outline: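 Luminescent read-out with Nano-Glo HiBiT lytic reagent after 6 h compound exposure at 37 °C. Cells were HiBiT-IRAK4 knock-in 293T (C-terminal tag), 10,000 per well. Compounds ran as 11-point half-log dilutions from […] highest dose, duplicate wells; DMSO served as negative control.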

Compound | DC50
CC(C)Oc1cc2nc([C@H]3CC[C@H](CN4CC[C@H](c5ccc6c(N7CCC(=O)NC7=O)nn(C)c6c5)[C@H](O)C4)CC3)cn2cc1C(=O)Nc1cccn(C2CC2)c1=O [Example 178, N-(1-cyclopropyl-2-oxo-1,2-dihydropyridin-3-yl)-2-((S,4r)-4-(((3S,4R)-4-(3-(2,4-dioxotetrahydropyrimidin-1(2H)-yl)-1-methyl-1H-indazol-6-yl)-3-hydroxypiperidin-1-yl)methyl)cyclohexyl)-7-isopropoxyimidazo[1,2-a]pyridine-6-carboxamide] | < 10 nM
CC(C)Oc1cc2nc(C3CCN(CC(=O)N4CCC(c5ccc(NC6CCC(=O)NC6=O)cc5)CC4)CC3)cn2cc1C(=O)Nc1ccccn1 (centres unmarked) [Example 109, 2-[1-[2-[4-[4-[(2,6-dioxo-3-piperidyl)amino]phenyl]-1-piperidyl]-2-oxo-ethyl]-4-piperidyl]-7-isopropoxy-N-(2-pyridyl)imidazo[1,2-a]pyridine-6-carboxamide] | 10 to 100 nM
CC(C)Oc1cc2nc(C3CCN(C(=O)CC4CC5(C4)CN(c4ccc(C6CCC(=O)NC6=O)cc4)C5)CC3)cn2cc1C(=O)Nc1cccc(C(F)F)n1 (centres unmarked) [Example 90, N-[6-(difluoromethyl)-2-pyridyl]-2-[1-[2-[2-[4-(2,6-dioxo-3-piperidyl)phenyl]-2-azaspiro[3.3]heptan-6-yl]acetyl]-4-piperidyl]-7-isopropoxy-imidazo[1,2-a]pyridine-6-carboxamide] | 10 to 100 nM
CC(C)Oc1cc2nc([C@H]3CC[C@H](CN4CCN(c5ccc(C6CCC(=O)NC6=O)cn5)CC4)CC3)cn2cc1C(=O)Nc1cccn([C@H]2C[C@H]2F)c1=O (stereo partly drawn) [Example 180, 2-((1r,4S)-4-((4-(5-(2,6-dioxopiperidin-3-yl)pyridin-2-yl)piperazin-1-yl)methyl)cyclohexyl)-N-(1-((1S,2R)-2-fluorocyclopropyl)-2-oxo-1,2-dihydropyridin-3-yl)-7-isopropoxyimidazo[1,2-a]pyridine-6-carboxamide] | 10 to 100 nM
CC(C)Oc1cc2nc([C@H]3CC[C@H](CN4CCC(c5ccc(C6(C)CCC(=O)NC6=O)cc5)CC4)CC3)cn2cc1C(=O)Nc1cccc(C(F)F)n1 (some centres unmarked) [Example 40, N-[6-(difluoromethyl)-2-pyridyl]-7-isopropoxy-2-[4-[[4-[4-(3-methyl-2,6-dioxo-3-piperidyl)phenyl]-1-piperidyl]methyl]cyclohexyl]imidazo[1,2-a]pyridine-6-carboxamide] | 100 to 500 nM
CC(C)Oc1cc2nc(C3CCN(CC(=O)N4CCC(c5ccc(C6(F)CCC(=O)NC6=O)cc5)CC4)CC3)cn2cc1C(=O)Nc1ccn(C)n1 (centres unmarked) [Example 102, 2-[1-[2-[4-[4-(3-fluoro-2,6-dioxo-3-piperidyl)phenyl]-1-piperidyl]-2-oxo-ethyl]-4-piperidyl]-7-isopropoxy-N-(1-methylpyrazol-3-yl)imidazo[1,2-a]pyridine-6-carboxamide] | 10 to 100 nM
CC(C)Oc1cc2nc(C3CCN(C(=O)CN4CCC(c5ccc6c(C7CCC(=O)NC7=O)nn(C)c6c5)C(F)(F)C4)CC3)cn2cc1C(=O)Nc1cccc(C(F)F)n1 (centres unmarked) [Example 78, N-[6-(difluoromethyl)-2-pyridyl]-2-[1-[2-[4-[3-(2,6-dioxo-3-piperidyl)-1-methyl-indazol-6-yl]-3,3-difluoro-1-piperidyl]acetyl]-4-piperidyl]-7-isopropoxy-imidazo[1,2-a]pyridine-6-carboxamide] | 10 to 100 nM
CC(C)Oc1cc2nc([C@H]3CC[C@H](CN(C)C4CCN(c5cccc(C6CCC(=O)NC6=O)c5)CC4)CC3)cn2cc1C(=O)Nc1cccc(C(F)(F)F)n1 (some centres unmarked) [Example 11, 2-[4-[[[1-[3-(2,6-dioxo-3-piperidyl)phenyl]-4-piperidyl]-methyl-amino]methyl]cyclohexyl]-7-isopropoxy-N-[6-(trifluoromethyl)-2-pyridyl]imidazo[1,2-a]pyridine-6-carboxamide] | 10 to 100 nM
CC(C)Oc1cc2nc([C@H]3CC[C@H](CN(C)C4CCN(c5ccc(NC6CCC(=O)NC6=O)cc5)CC4)CC3)cn2cc1C(=O)Nc1cccc(C(F)(F)F)n1 (some centres unmarked) [Example 7, 2-[4-[[[1-[4-[(2,6-dioxo-3-piperidyl)amino]phenyl]-4-piperidyl]-methyl-amino]methyl]cyclohexyl]-7-isopropoxy-N-[6-(trifluoromethyl)-2-pyridyl]imidazo[1,2-a]pyridine-6-carboxamide] | 100 to 500 nM
CC(C)Oc1nc2nc(C3CCN(C(=O)N(C)C4CCN(c5ncc(C6CCC(=O)NC6=O)cc5F)CC4)CC3)cn2cc1C(=O)Nc1cccn(C2CC2)c1=O (centres unmarked) [Example 195] | 10 to 100 nM
CC(C)Oc1cc2nc([C@H]3CC[C@H](CN4CCC(c5ccc6c(c5)oc(=O)n6C5CCC(=O)NC5=O)CC4)CC3)cn2cc1C(=O)Nc1cnn2cccnc12 (some centres unmarked) [Example 173, 2-((1r,4r)-4-((4-(3-(2,6-dioxopiperidin-3-yl)-2-oxo-2,3-dihydrobenzo[d]oxazol-6-yl)piperidin-1-yl)methyl)cyclohexyl)-7-isopropoxy-N-(pyrazolo[1,5-a]pyrimidin-3-yl)imidazo[1,2-a]pyridine-6-carboxamide] | < 10 nM
CC(C)Oc1cc2nn([C@H]3CC[C@H](CN4CC5(CCN(c6ncc(C7CCC(=O)NC7=O)cc6F)CC5)C4)CC3)cc2cc1C(=O)Nc1cccn(C2CC2)c1=O (some centres unmarked) [Example 124, N-(1-cyclopropyl-2-oxo-1,2-dihydropyridin-3-yl)-2-((r,4r)-4-((7-(5-(2,6-dioxopiperidin-3-yl)-3-fluoropyridin-2-yl)-2,7-diazaspiro[3.5]nonan-2-yl)methyl)cyclohexyl)-6-isopropoxy-2H-indazole-5-carboxamide] | < 10 nM
CC(C)Oc1cc2nc(C3CCN(C(=O)CC4(O)CCN(c5ccc6c(C7CCC(=O)NC7=O)nn(C)c6c5)CC4)CC3)cn2cc1C(=O)Nc1cccc(C(F)F)n1 (centres unmarked) [Example 79, N-[6-(difluoromethyl)-2-pyridyl]-2-[1-[2-[1-[3-(2,6-dioxo-3-piperidyl)-1-methyl-indazol-6-yl]-4-hydroxy-4-piperidyl]acetyl]-4-piperidyl]-7-isopropoxy-imidazo[1,2-a]pyridine-6-carboxamide] | 10 to 100 nM
CC(C)Oc1cc2nn(C3CCN(C(=O)N(C)C4CCN(c5ncc(C6CCC(=O)NC6=O)cc5F)CC4)CC3)cc2cc1C(=O)Nc1cccn([C@H]2C[C@H]2F)c1=O (stereo partly drawn) [Example 155, 2-(1-((1-(5-(2,6-dioxopiperidin-3-yl)-3-fluoropyridin-2-yl)piperidin-4-yl)(methyl)carbamoyl)piperidin-4-yl)-N-(1-((1S,2R)-2-fluorocyclopropyl)-2-oxo-1,2-dihydropyridin-3-yl)-6-isopropoxy-2H-indazole-5-carboxamide] | 10 to 100 nM
CC(C)Oc1cc2nn(C3CCN(C(=O)CC4CCN(c5ncc6c(n5)n(C)c(=O)n6C5CCC(=O)NC5=O)CC4)CC3)cc2cc1C(=O)Nc1cccn([C@H]2C[C@H]2F)c1=O (stereo partly drawn) [Example 150, 2-(1-(2-(1-(7-(2,6-dioxopiperidin-3-yl)-9-methyl-8-oxo-8,9-dihydro-7H-purin-2-yl)piperidin-4-yl)acetyl)piperidin-4-yl)-N-(1-((1S,2R)-2-fluorocyclopropyl)-2-oxo-1,2-dihydropyridin-3-yl)-6-isopropoxy-2H-indazole-5-carboxamide] | < 10 nM
CC(C)Oc1cc2nc(C3CCN(CC(=O)N4CCC(c5ccc(C6(F)CCC(=O)NC6=O)cc5)CC4)CC3)cn2cc1C(=O)Nc1cccc(C(F)F)n1 (centres unmarked) [Example 101, N-[6-(difluoromethyl)-2-pyridyl]-2-[1-[2-[4-[4-(3-fluoro-2,6-dioxo-3-piperidyl)phenyl]-1-piperidyl]-2-oxo-ethyl]-4-piperidyl]-7-isopropoxy-imidazo[1,2-a]pyridine-6-carboxamide] | 10 to 100 nM
CC(C)Oc1cc2nc(C3CCN(C(=O)CCCCNc4ccc(C5CCC(=O)NC5=O)cn4)CC3)cn2cc1C(=O)Nc1cccn([C@H]2C[C@H]2F)c1=O (stereo partly drawn) [Example 165, 2-(1-(5-((5-(2,6-dioxopiperidin-3-yl)pyridin-2-yl)amino)pentanoyl)piperidin-4-yl)-N-(1-((1S,2R)-2-fluorocyclopropyl)-2-oxo-1,2-dihydropyridin-3-yl)-7-isopropoxyimidazo[1,2-a]pyridine-6-carboxamide] | 10 to 100 nM
CC(C)Oc1cc2nc(C3CCN(CC(F)=C4CCN(c5ncc(C6CCC(=O)NC6=O)cc5F)CC4)CC3)cn2cc1C(=O)Nc1cccc(C(F)F)n1 (centres unmarked) [Example 112, N-[6-(difluoromethyl)-2-pyridyl]-2-[1-[2-[1-[5-(2,6-dioxo-3-piperidyl)-3-fluoro-2-pyridyl]-4-piperidylidene]-2-fluoro-ethyl]-4-piperidyl]-7-isopropoxy-imidazo[1,2-a]pyridine-6-carboxamide] | 10 to 100 nM
CC(C)Oc1cc2nn([C@H]3CC[C@H](CN4CC[C@H](c5cc6c(cc5F)c(N5CCC(=O)NC5=O)nn6C)[C@H](O)C4)CC3)cc2cc1C(=O)Nc1cccn([C@H]2C[C@H]2F)c1=O [Example 184, 2-((1S,4S)-4-(((3S,4R)-4-(3-(2,4-dioxotetrahydropyrimidin-1(2H)-yl)-5-fluoro-1-methyl-1H-indazol-6-yl)-3-hydroxypiperidin-1-yl)methyl)cyclohexyl)-N-(1-((1S,2R)-2-fluorocyclopropyl)-2-oxo-1,2-dihydropyridin-3-yl)-6-isopropoxy-2H-indazole-5-carboxamide] | < 10 nM
CC(C)Oc1nc2nc(C3CCN(C(=O)CC4CC5(C4)CN(c4ccc(C6CCC(=O)NC6=O)cn4)C5)CC3)cn2cc1C(=O)Nc1cccn([C@H]2C[C@H]2F)c1=O (some centres unmarked) [Example 196] | < 10 nM
